According to ChEMBL document CHEMBL4689842, “EUbOPEN Chemogenomics Library wave 1” (2021):

What was measured:
Type in all cases: toxicity, cell-based
HEK-293T = experiment: Incucyte cell viability with HEK293T; details: human, 10 µM, compound concentration 10 uM
Fibroblast = experiment: Incucyte cell viability with human fibroblast; details: 10 µM, compound concentration 10 uM
U2OS = experiment: Incucyte cell viability with U2OS; details: human, 10 µM, compound concentration 10 uM
[1] = 0 h, replicate number 1, timepoint 0 hours
[2] = 6 h, replicate number 1, timepoint 6 hours
[3] = 12 h, replicate number 1, timepoint 12 hours
[4] = 12 h, replicate number 2, timepoint 12 hours
[5] = 18 h, replicate number 1, timepoint 18 hours
[6] = 18 h, replicate number 2, timepoint 18 hours
[7] = 24 h, replicate number 1, timepoint 24 hours
[8] = 24 h, replicate number 2, timepoint 24 hours
[9] = 6 h, replicate number 2, timepoint 6 hours
[10] = 0 h, replicate number 2, timepoint 0 hours
Also: filed as whole numbers so only -1 and 0 and 1 occur.

SMILES	Growth Rate (HEK-293T; [1])	Growth Rate (HEK-293T; [2])	Growth Rate (HEK-293T; [3])	Growth Rate (HEK-293T; [4])	Growth Rate (HEK-293T; [5])	Growth Rate (HEK-293T; [7])	Growth Rate (Fibroblast; [1])	Growth Rate (Fibroblast; [2])	Growth Rate (Fibroblast; [3])	Growth Rate (Fibroblast; [5])	Growth Rate (Fibroblast; [7])	Growth Rate (U2OS; [1])	Growth Rate (U2OS; [9])	Growth Rate (U2OS; [3])	Growth Rate (U2OS; [4])	Growth Rate (U2OS; [5])	Growth Rate (U2OS; [7])	Growth Rate (U2OS; [10])	Growth Rate (U2OS; [2])	Growth Rate (Fibroblast; [6])	also measured
COc1ccnc(N2CCC3(CCCN(Cc4c[nH]c5ccccc45)C3=O)CC2)n1	0	1	1	0	1	1	0	0	0	0	0	1	0	1	0	1	0				Growth Rate (HEK-293T; [6]): 0; Growth Rate (HEK-293T; [8]): 0
CNC(=O)c1ccccc1Nc1cc(Nc2ccc(N3CCOCC3)cc2OC)ncc1C(F)(F)F [VS-4718]		0	0		0	0	0			1	0	1		0		0	0	0	0		Growth Rate (Fibroblast; [8]): 1
CCCCCNC(=O)NS(=O)(=O)c1cc([N+](=O)[O-])ccc1NC1CCCCC1	1	0	0	1	0	1	0		1	1	1	0	1	1		0	1				Growth Rate (HEK-293T; [10]): 0; Growth Rate (HEK-293T; [9]): 1; Growth Rate (HEK-293T; [8]): 0; Growth Rate (Fibroblast; [10]): 1; Growth Rate (Fibroblast; [9]): 0; Growth Rate (Fibroblast; [4]): 0; Growth Rate (U2OS; [6]): 1
OCCn1cc(-c2cnc3nnn(Cc4ccc5ncccc5c4)c3n2)cn1 [PF-04217903]	1	0	1		1	1	0	1		1	1		0	1	0	1	1	0	1	0	Growth Rate (Fibroblast; [9]): 0; Growth Rate (Fibroblast; [4]): 0; Growth Rate (U2OS; [6]): 0; Growth Rate (U2OS; [8]): 0
CC1(C)C(=O)C(C)(C)c2cc(C(=O)Nc3ccc(C(=O)O)cc3)ccc21	0		1		1	1	0	0	0	0	0	0	1	0	1	1	1			1	Growth Rate (HEK-293T; [9]): 1; Growth Rate (Fibroblast; [10]): 1
NC(CCP(=O)(O)O)C(=O)O (racemic)	0	1	1		1	1	0				1	0	0	1		1	1			1	
CC(C)OC(=O)C1=CN(C(=O)c2ccc(F)c(F)c2)CC(C)(C)c2c1[nH]c1ccccc21 [TUROFEXORATE ISOPROPYL]	0	0	0		0	0	0	0	0	0	0	0		0		0	0				Growth Rate (U2OS; [6]): 1; Growth Rate (U2OS; [8]): 1
Cc1cnc(Nc2ccc(F)cc2Cl)nc1-c1c[nH]c(C(=O)N[C@H](CO)c2cccc(Cl)c2)c1	0	0	0		0	0		0	1	0	0	0		0		0	0	1	0	1	Growth Rate (Fibroblast; [10]): 0; Growth Rate (Fibroblast; [8]): 1
N#Cc1c[nH]c2c(C(=O)N3CCN(CCc4ccc(F)cc4)CC3)cccc12 [PRUVANSERIN]		0	0		0	0	0	0	0	0	0	1	0	1	0	0	0				Growth Rate (HEK-293T; [10]): 0; Growth Rate (U2OS; [6]): 1
O=C(c1ccc(C(=O)N2CCC(N3CCCC3)CC2)c(Nc2ccccc2)c1)N1CCC(N2CCCC2)CC1						1	0	1	1	1	1		1	1		1	1				Growth Rate (HEK-293T; [10]): 0
CC(=O)c1c(NS(C)(=O)=O)c2cc(-c3ccc(Cl)cc3)c(-c3ccc(Cl)cc3Cl)nc2n(C)c1=O [MRL-CB1-NC]	1	0	0	1	0	0	0	0	0	0	0	0	1	1		1	1	1			Growth Rate (HEK-293T; [10]): 0
CO[C@@H](C)c1c(Nc2ccc([C@@H](N(C)C(=O)C3CCS(=O)(=O)CC3)C(F)(F)F)cc2)cnc2cc(Cl)nn12 [NVS-MALT1-C]	1	0	0		0	0	0	0	1	1	1	0		1		0	1	1	0		Growth Rate (Fibroblast; [4]): 0; Growth Rate (U2OS; [8]): 0
Nc1cc(F)ccc1NC(=O)/C=C/c1cnn(C/C=C/c2ccccc2)c1	0			1		1	0			1	1			1		0	0	1	0	0	Growth Rate (HEK-293T; [9]): 0; Growth Rate (HEK-293T; [6]): 1; Growth Rate (HEK-293T; [8]): 0; Growth Rate (Fibroblast; [4]): 0; Growth Rate (Fibroblast; [8]): 0
